Data taken from patent publication US11987564B2, “PTPRD inhibitors and uses thereof” (United States Government as represented by the Department …, priority 2021, dated 2024).
Like-named read-outs stand apart in the source and are kept apart here.

Legend:
PTPN1 (PTP1B) = target: T1, PTPN1 (PTP1B) (Homo sapiens, UniProt P18031); experiment: pNPP hydrolysis by PTPN1 (PTP1B) phosphatase; assay type: biochemical; conditions: untitled table after Table 4; mean, SEM in wrapped line
T1 construct: purchased
T1 sequence (P18031 1-435): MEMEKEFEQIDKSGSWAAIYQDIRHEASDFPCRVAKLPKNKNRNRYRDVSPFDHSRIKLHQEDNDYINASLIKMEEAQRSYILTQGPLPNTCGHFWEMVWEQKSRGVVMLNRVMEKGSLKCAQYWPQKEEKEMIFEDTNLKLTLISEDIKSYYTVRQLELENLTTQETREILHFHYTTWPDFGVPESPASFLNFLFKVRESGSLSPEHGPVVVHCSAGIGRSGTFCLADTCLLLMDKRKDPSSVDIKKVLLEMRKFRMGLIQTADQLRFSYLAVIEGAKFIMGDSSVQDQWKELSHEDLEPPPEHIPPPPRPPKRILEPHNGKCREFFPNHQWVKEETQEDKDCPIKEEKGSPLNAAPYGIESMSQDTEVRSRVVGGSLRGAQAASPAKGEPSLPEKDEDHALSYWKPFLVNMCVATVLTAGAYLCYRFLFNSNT

PTPRJ = target: T2, PTPRJ (Homo sapiens, UniProt Q12913); experiment: pNPP hydrolysis by PTPRJ phosphatase; assay type: biochemical
T2 construct: purchased
T2 sequence (Q12913 36-1337): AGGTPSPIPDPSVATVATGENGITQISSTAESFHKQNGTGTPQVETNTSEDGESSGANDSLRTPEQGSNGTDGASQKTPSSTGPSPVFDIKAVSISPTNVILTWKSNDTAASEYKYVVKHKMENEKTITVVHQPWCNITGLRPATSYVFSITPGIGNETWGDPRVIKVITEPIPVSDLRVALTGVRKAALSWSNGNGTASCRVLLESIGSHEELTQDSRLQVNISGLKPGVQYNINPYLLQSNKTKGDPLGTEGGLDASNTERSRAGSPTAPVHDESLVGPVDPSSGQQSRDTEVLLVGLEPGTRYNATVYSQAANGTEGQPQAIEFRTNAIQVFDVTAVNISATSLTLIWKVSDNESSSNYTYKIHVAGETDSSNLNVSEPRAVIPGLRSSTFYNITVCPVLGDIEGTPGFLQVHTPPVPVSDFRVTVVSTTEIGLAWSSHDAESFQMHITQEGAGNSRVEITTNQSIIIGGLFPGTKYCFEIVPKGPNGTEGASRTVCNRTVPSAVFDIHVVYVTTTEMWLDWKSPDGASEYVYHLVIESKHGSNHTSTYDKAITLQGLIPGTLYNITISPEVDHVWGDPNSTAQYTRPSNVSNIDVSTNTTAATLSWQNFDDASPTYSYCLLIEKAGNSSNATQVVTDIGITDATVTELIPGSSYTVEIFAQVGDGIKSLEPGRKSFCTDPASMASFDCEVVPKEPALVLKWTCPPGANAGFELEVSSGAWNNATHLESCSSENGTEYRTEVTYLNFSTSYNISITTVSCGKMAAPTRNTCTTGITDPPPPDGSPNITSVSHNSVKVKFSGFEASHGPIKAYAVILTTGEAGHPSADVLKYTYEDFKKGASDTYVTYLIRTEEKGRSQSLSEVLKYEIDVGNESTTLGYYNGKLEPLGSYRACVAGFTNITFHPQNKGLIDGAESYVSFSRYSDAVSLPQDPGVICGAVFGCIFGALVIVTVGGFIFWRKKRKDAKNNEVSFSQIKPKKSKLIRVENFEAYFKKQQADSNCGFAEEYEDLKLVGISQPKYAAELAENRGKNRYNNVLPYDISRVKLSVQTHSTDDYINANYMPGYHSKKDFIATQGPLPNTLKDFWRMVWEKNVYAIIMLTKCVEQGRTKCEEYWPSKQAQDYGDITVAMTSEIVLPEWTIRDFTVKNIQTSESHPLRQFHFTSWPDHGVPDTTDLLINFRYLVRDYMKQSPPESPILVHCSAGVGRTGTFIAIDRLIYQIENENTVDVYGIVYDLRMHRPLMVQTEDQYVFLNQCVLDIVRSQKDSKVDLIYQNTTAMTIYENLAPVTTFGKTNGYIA
Excerpt: (§1) Human […] ([…]-pY-[…]) phosphopeptide (Pierce/ThermoFisher) were synthesized.

PTPRS = PTPRS (Homo sapiens, UniProt Q13332); experiment: pNPP hydrolysis by recombinant PTPRS phosphatase; assay type: biochemical
Excerpt: as §1

[1] = tested on: wildtype C57BL/6J or PTPRD knockout mice
PTPRF = PTPRF (Homo sapiens, UniProt P10586); experiment: pNPP hydrolysis by recombinant PTPRF phosphatase
Protocol: (§2) Phosphatase assays: Data for each assay type (3 wells/experimental condition, read using a Spectromax plate reader) was plotted vs time, and results derived from the slopes of linear regions were reported from triplicate independent experiments.
(§3) For assays of compound ligands that were likely pseudo-irreversible, 18 min preincubations were also added. For work determining the effect of flavonoids on pNPP hydrolysis, a 96 well half-area plate was prepared by first filling each well to be tested with 18 μL of 50 μM pNPP and 25 uL of running buffer, and 2 μL of DMSO containing the desired concentration of flavonoid and/or peptide. PTPRD phosphatase was diluted 1:50 in a dilution buffer.

recombinant PTPRD = recombinant PTPRD (Homo sapiens, UniProt P23468); experiment: pNPP hydrolysis by recombinant PTPRD phosphatase
Protocol: as §2, §3

[2] = Table 4, mean (SEM) of three independent experiments, * = instability, no valid triplicate
[3] = untitled table after Table 4, mean, SEM in wrapped line
[4] = PTPRF IC50, Table 4, mean (SEM) of three independent experiments, * = instability, no valid triplicate
[5] = PTPRF IC50, untitled table after Table 4, mean, SEM in wrapped line
[6] = PTPRD IC50, Table 4, mean (SEM) of three independent experiments, * = instability, no valid triplicate
[7] = PTPRD IC50, untitled table after Table 4, mean, SEM in wrapped line, compounds with PTPRD IC50 <5 μM

PTPRS, sequence (Q13332 30-1948, species assumed): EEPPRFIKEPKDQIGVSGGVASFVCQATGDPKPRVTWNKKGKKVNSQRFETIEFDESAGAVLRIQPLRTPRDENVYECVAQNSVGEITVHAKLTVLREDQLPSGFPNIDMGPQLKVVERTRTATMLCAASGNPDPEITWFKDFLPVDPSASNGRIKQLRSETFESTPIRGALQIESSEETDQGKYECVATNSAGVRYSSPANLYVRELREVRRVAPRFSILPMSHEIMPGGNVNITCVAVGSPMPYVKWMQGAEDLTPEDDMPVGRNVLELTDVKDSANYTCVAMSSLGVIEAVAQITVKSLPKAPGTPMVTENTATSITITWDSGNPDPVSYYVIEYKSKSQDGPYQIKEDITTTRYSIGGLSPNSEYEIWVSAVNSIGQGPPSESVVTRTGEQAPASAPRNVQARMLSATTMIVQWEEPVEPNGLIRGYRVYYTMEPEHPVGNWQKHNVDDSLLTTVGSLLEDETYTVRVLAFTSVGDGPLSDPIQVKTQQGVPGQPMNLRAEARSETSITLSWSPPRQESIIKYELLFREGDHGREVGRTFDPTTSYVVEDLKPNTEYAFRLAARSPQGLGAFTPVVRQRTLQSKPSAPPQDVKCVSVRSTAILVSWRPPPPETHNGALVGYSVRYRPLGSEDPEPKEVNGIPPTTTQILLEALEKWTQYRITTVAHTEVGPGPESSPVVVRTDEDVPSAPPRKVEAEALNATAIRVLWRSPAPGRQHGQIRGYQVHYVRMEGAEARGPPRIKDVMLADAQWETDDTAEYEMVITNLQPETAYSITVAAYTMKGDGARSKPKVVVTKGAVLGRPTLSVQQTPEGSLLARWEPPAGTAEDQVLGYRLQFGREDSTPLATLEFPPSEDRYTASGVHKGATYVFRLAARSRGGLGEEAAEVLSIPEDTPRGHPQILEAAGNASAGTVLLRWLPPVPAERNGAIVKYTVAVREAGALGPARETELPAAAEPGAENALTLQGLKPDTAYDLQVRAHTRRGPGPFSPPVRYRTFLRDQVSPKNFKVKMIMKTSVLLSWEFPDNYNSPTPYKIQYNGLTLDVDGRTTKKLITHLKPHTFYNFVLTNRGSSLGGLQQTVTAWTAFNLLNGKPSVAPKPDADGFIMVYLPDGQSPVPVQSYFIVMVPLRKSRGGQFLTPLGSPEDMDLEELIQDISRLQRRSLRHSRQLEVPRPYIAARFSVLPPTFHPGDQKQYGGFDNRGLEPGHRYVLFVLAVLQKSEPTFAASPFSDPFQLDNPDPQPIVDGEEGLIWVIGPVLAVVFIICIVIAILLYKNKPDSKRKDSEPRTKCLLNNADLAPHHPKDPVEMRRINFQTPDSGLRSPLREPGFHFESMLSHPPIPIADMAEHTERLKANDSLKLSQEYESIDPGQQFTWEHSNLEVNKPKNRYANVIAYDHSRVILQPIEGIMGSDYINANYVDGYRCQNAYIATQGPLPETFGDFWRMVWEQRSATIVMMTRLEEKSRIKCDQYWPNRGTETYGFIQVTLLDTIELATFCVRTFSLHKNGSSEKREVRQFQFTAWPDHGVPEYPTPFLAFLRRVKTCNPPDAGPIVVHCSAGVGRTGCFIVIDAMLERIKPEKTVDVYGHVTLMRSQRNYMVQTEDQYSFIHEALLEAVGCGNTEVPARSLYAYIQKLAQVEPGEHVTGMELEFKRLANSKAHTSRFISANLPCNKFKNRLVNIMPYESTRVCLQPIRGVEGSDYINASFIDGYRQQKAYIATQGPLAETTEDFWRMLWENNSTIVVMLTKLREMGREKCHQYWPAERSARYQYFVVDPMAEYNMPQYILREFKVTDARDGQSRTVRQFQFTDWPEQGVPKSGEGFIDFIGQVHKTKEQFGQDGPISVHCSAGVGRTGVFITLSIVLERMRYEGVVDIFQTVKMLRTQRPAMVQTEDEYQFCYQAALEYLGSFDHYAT
PTPRF, sequence (P10586 30-1907, species assumed): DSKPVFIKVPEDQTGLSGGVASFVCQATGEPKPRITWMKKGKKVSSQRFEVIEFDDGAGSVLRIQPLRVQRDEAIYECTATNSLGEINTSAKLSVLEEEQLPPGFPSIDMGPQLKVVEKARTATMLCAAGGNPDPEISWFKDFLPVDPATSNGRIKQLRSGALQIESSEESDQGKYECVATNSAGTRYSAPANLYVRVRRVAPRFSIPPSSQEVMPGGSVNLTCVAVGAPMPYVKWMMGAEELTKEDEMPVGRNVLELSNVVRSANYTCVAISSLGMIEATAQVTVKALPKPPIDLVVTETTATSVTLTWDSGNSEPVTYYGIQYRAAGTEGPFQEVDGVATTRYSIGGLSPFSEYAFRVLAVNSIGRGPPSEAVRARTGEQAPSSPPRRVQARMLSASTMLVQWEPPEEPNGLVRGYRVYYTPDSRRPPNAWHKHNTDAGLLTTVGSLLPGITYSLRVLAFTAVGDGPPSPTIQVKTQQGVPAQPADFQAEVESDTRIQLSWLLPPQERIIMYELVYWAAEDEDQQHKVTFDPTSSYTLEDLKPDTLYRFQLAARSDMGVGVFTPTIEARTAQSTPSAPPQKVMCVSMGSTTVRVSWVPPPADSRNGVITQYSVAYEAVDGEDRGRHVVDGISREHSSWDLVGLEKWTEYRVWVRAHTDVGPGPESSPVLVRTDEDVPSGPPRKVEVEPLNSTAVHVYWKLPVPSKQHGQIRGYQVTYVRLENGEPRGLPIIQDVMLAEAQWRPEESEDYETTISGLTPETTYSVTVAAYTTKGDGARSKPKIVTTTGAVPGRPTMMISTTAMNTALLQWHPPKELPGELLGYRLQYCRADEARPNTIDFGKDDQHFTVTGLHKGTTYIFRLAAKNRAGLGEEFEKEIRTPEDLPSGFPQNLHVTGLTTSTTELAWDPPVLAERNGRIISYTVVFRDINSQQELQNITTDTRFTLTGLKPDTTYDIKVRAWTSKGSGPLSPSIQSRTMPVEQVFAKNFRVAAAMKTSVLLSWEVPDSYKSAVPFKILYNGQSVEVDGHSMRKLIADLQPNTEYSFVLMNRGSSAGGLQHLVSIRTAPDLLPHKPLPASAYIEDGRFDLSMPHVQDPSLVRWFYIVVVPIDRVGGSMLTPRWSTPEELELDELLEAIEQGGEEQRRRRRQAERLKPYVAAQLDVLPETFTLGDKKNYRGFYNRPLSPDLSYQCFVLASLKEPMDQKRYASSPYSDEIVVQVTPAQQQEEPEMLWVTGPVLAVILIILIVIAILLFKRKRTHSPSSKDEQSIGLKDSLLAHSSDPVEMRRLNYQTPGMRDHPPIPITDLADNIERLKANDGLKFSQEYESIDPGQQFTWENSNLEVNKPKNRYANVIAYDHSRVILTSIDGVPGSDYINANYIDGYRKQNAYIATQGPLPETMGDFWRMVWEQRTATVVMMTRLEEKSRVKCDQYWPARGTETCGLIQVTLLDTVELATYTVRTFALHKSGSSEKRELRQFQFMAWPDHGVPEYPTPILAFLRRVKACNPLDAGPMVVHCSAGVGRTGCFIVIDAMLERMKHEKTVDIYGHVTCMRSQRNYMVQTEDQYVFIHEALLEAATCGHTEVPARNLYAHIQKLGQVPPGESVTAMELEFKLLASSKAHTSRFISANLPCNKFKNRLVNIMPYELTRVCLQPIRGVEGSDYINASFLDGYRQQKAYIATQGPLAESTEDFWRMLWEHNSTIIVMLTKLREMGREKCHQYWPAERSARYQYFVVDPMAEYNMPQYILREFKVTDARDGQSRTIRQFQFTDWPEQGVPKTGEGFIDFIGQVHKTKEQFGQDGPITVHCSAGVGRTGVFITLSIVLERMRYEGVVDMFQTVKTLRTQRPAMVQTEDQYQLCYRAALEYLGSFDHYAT

Compound	IC50 (PTPN1 (PTP1B))	IC50 (PTPRJ; [2])	IC50 (PTPRJ; [3])	IC50 (PTPRS; [2])	IC50 (PTPRS; [3])	death (or euthanasia) prior to day 3 ([1]; 400 or 200 mg/kg gavage)	no observed adverse effect level (NOAEL) ([1]; mouse, single dose p.o., based on weight changes, gross pathology, histopathology, cage behaviors)	IC50 (PTPRF; [4])	IC50 (PTPRF; [5])	IC50 (recombinant PTPRD; read-out: PTPRD IC50, Table 4, mean (SEM) of three independent experiments, * = instability, no valid triplicate)	IC50 (recombinant PTPRD; read-out: PTPRD IC50, untitled table after Table 4, mean, SEM in wrapped line, compounds with PTPRD IC50 <5 μM)	IC50 (recombinant PTPRD; [6])	IC50 (recombinant PTPRD; [7])
COc1c(OCC2CCCC2)cc2c(c1C=O)CC(O)OC2=O (stereo not shown) [Compound 66, 7-Cyclopentylmethoxy-3-hydroxy-6-methoxy-1-oxo-isochroman-5-carbaldehyde]	119 µM	29.3 µM	29.3 µM	0.61 µM	0.61 µM	none	200 mg/kg	1.72 µM	1.72 µM				
CCCCOc1cc2c(c(C=O)c1OC)CC(O)OC2=O (stereo not shown) [Compound 1, reference compound]	215 µM	27.4 µM	27.4 µM	1.27 µM	1.27 µM			3.95 µM	3.95 µM	2.27 µM	2.27 µM		
COc1c(OCc2ccc(C)cc2)cc2c(c1C=O)CC(O)OC2=O (stereo not shown) [Compound 29, 3-Hydroxy-6-methoxy-7-((4-methylbenzyl)oxy)-1-oxoisochromane-5-carbaldehyde]	148 µM	37.7 µM	37.7 µM	3.58 µM	3.58 µM			6.57 µM	6.57 µM			3.8 µM	3.8 µM
COc1cccc(COc2cc3c(c(C=O)c2OC)CC(O)OC3=O)c1 (stereo not shown) [Compound 31, 3-Hydroxy-6-methoxy-7-((3-methoxybenzyl)oxy)-1-oxoisochromane-5-carbaldehyde]	203 µM		62.8 µM	13 µM	3.25 µM				5.73 µM			4.12 µM	5.64 µM
